Reference: patent US20150203474A1, “SOLID FORMS COMPRISING INHIBITORS OF HCV NS5A, COMPOSITIONS THEREOF, AND USES THEREWITH” (PRESIDIO PHARMACEUTICALS ,INC., priority 2012, published 2015)
Values after ≈ are worked out from the molar mass of the structure shown. Read-outs that look alike come from different tables or passages of the source.

Legend:
Format in all cases: physicochemical
[1] = Solubility of Form I and free base compound 4-3 (visual and HPLC assay of filtrate); conditions: for solubility at 24 h: thermodynamic from solid; for solubility at 24 h / HPLC Solubility / Visual Solubility (observation in words): target conc. 2.0 mg/mL; for pH (Filtrated): filtrate of solubility sample
Experimental: Solubility of Form I as well as the free base compound 4-3 was tested. Solubility was measured by placing a small quantity of the compound to be analyzed in a glass vial, capping and rotating the vial overnight at ambient conditions (24 hours). Target concentration was 2.0 mg/mL. The samples were filtrated with 0.45-μm filters. The subsequent filtrate was collected for HPLC assay. HPLC conditions are shown in Table 10 in Appendix A. Solubility for Form I is shown in Table 11 and for the free base compound 4-3 is shown in Table 12 in Appendix A. [table]

[2] = Moisture sorption profile (DVS) of Compound II Form I and amorphous Compound II; conditions: DVS at 25° C.
Experimental: The moisture sorption profile was generated of the sample as well as of a sample of amorphous Compound II at 25° C. using a DVS Moisture Balance Flow System (Model Advantage) with the following conditions: sample size approximately 10 mg, drying 25° C. for 60 minutes, adsorption range 0% to 95% RH, desorption range 95% to 0% RH, and step interval 5%. The equilibrium criterion was <0.01% weight change in 5 minutes for a maximum of 120 minutes.

[3] = Solubility of Form A (aliquot addition / slurry, visual)
Experimental: Aliquots of various solvents were added to measured amounts of Form A with agitation (typically sonication) at ambient or elevated temperatures until completedissolution was achieved, as judged by visual observation. […] Samples were left to slurry at ambient and elevated temperatures for several days; however, no further dissolution was observed.

[4] = Stressing of Form A at ~40° C./~75% RH
Experimental: Form A samples were stressed at ˜40° C./˜75% relative humidity (RH) for 25-27 days. The samples were added to glass vials and then placed uncapped in jars containing saturated salt solutions. The jars were sealed and placed in an oven. […] XRPD patterns for this sample were collected with a PANalytical X'Pert PRO MPD diffractometer using an incident beam of Cu Kα radiation produced using a long, fine-focus source and a nickel filter. The diffractometer was configured using the symmetric Bragg-Brentano. Prior to the analysis, a silicon specimen (NIST SRM 640d) was analyzed to verify the Si 111 peak position. A specimen of the sample was packing into a nickel-coated copper well. Antiscatter slits (SS) were used to minimize the background generated by air. Soller slits for the incident and diffracted beams were used to minimize broadening from axial divergence. Diffraction patterns were collected using a scanning position-sensitive detector (X'Celerator) located 240 mm from the sample and Data Collector software v. 2.2b. […] TG′analysis was performed using a TA Instruments Q5000 IR and 2950 thermogravimetric analyzers. Temperature calibration was performed using nickel and Alumel™. Each sample was placed in an aluminum pan. Samples ran on TA Instruments 2950 were left uncapped and samples ran on Q5000 was hermetically sealed, the lid pierced, then inserted into the TG furnace. The furnace was heated under nitrogen. The sample was heated from 0° C. to 350° C., at 10° C./min.

CC[C@H](C)[C@H](NC(=O)OC)C(=O)N1CCC[C@H]1c1nc2ccc(-c3ccc4cc(-c5cnc([C@@H]6CCCN6C(=O)[C@@H](NC(=O)OC)[C@@H](C)OC)[nH]5)ccc4c3)cc2[nH]1 [Form I of Compound II]
solubility at 24 h ([1]; 0.1N HCl, simulated gastric fluid, 0.1N HCl, 24 hours ambient, 0.45-μm filtrate, read-out: HPLC Solubility): 2070 µg/mL (≈ 2610 µM)
solubility at 24 h ([1]; 0.1N HCl, simulated gastric fluid, 0.1N HCl, read-out: Visual Solubility): > 2000 µg/mL
pH (Filtrated) ([1]; 0.1N HCl, listed as Form I): 1.00
pH (Filtrated) ([1]; Water, listed as Form I): 3.45
HPLC Solubility ([1]; Water, 24 hours ambient, 0.45-μm filtrate, listed as Form I): 2036 µg/mL
solubility at 24 h ([1]; pH 2 medium, pH 2, simulated gastric fluid, pH 2 medium, 24 hours ambient, 0.45-μm filtrate, read-out: HPLC Solubility): 2050 µg/mL (≈ 2590 µM)
solubility at 24 h ([1]; pH 2 medium, pH 2, simulated gastric fluid, pH 2 medium, read-out: Visual Solubility): > 2000 µg/mL
pH (Filtrated) ([1]; pH 2 medium, listed as Form I): 2.00
solubility at 24 h ([1]; pH 3 medium, pH 3, aqueous buffer, pH 3 medium, 24 hours ambient, 0.45-μm filtrate, read-out: HPLC Solubility): 2030 µg/mL (≈ 2560 µM)
solubility at 24 h ([1]; pH 3 medium, pH 3, aqueous buffer, pH 3 medium, read-out: Visual Solubility): > 2000 µg/mL
pH (Filtrated) ([1]; pH 3 medium, listed as Form I): 2.96
pH (Filtrated) ([1]; pH 4 medium, listed as Form I): 3.55
HPLC Solubility ([1]; pH 4 medium, 24 hours ambient, 0.45-μm filtrate, listed as Form I): 1857 µg/mL
Visual Solubility (observation in words) ([1]; pH 4 medium, listed as Form I): A few
pH (Filtrated) ([1]; pH 5 medium, listed as Form I): 3.63
Visual Solubility (observation in words) ([1]; pH 5 medium): Turbid +
HPLC Solubility ([1]; pH 5 medium, 24 hours ambient, 0.45-μm filtrate, listed as Form I): 1106 µg/mL
pH (Filtrated) ([1]; pH 6 medium, listed as Form I): 5.44
Visual Solubility (observation in words) ([1]; pH 6 medium, listed as Form I): Many
pH (Filtrated) ([1]; pH 7 medium, listed as Form I): 6.86
Visual Solubility (observation in words) ([1]; pH 7 medium, listed as Form I): Many
pH (Filtrated) ([1]; pH 8 medium, listed as Form I): 7.58
Visual Solubility (observation in words) ([1]; pH 8 medium, listed as Form I): Many
solubility at 24 h ([1]; water, Water, read-out: Visual Solubility): > 2000 µg/mL
Hygroscopicity (in words) ([2]; 0-75% RH): medium hygroscopic
Water absorption at high RH (in words) ([2]; ~85% RH and above): absorbed water very quickly
weight percentage change (water uptake) from 0-75% RH ([2]; listed as Compound II Form I): 4.34%

COC(=O)N[C@H](C(=O)N1CCC[C@H]1c1ncc(-c2ccc3cc(-c4ccc5nc([C@@H]6CCCN6C(=O)[C@@H](NC(=O)OC)C(C)C)[nH]c5c4)ccc3c2)[nH]1)C(C)C [Form A of Compound I]
Solubility estimate (in words) ([3]; IPA and IPA/MTBE (2/1 (v/v)) mixtures at ambient and elevated temperatures, aliquot addition): poorly soluble
solubility ([3]; IPA/water (95/5 v/v), organic solvent or mixture, thermodynamic from solid, IPA:H2O (95:5), RT, aliquot addition): 33000 µg/mL (≈ 43300 µM)
solubility ([3]; organic solvent or mixture, thermodynamic from solid, IPA, RT, aliquot addition): < 3000 µg/mL
solubility at 4 days ([3]; organic solvent or mixture, thermodynamic from solid, IPA, RT, slurry, 4 days): < 3000 µg/mL
solubility ([3]; organic solvent or mixture, thermodynamic from solid, IPA, ~60° C., aliquot addition): 2000 µg/mL (≈ 2620 µM)
solubility at 6 days ([3]; organic solvent or mixture, thermodynamic from solid, IPA, ~60° C., slurry, 6 days): < 6000 µg/mL
solubility ([3]; organic solvent or mixture, thermodynamic from solid, IPA:tBME (2:1), RT, aliquot addition): < 2000 µg/mL
solubility at 3 days ([3]; organic solvent or mixture, thermodynamic from solid, IPA:tBME (2:1), RT, slurry): < 2000 µg/mL
solubility ([3]; organic solvent or mixture, thermodynamic from solid, IPA:tBME (2:1), ~60° C., aliquot addition): < 3000 µg/mL
solubility at 3 days ([3]; organic solvent or mixture, thermodynamic from solid, IPA:tBME (2:1), ~60° C., slurry): < 3000 µg/mL
Hygroscopicity (in words) ([4]; stressed ~40° C./~75% RH 27 days vs unstressed material): hygroscopic at high RH
Thermogravimetric weight loss after stressing ([4]; ~40° C./~75% RH, after 27 days, from 25-225° C., equivalent to 5 moles of water): ~10%
Solid form by XRPD after stressing ([4]; ~40° C./~75% relative humidity, uncapped, after 25 days): remained Form A
